MIC data for 41 compounds are collected here from ChEMBL document CHEMBL1156621, “Synthesis and cellular effects of cycloterpenals: cyclohexadienal-based activators of neurite outgrowth” (2008).

SMILES strings stand for the structures. Converted amounts (≈) assume the structure as drawn. Bounds are passed on as bounds.

Assay type in all cases: functional
One experiment concerns Saccharomyces cerevisiae. Description: Antifungal activity against Saccharomyces cerevisiae after 16 hrs.
The next experiment concerns Escherichia coli. The experiment is described as follows: Antibacterial activity against Escherichia coli after 16 hrs.
The subject of a further experiment is Bacillus subtilis. Description: Antibacterial activity against Bacillus subtilis after 16 hrs.

For `O=CC1=CC=C(c2ccc(Cl)s2)CC1c1ccccc1` (stereo not drawn), the MIC against Saccharomyces cerevisiae, with Escherichia coli and against Bacillus subtilis was > 100 µg/mL each time.

For the compound `O=Cc1ccc(-c2ccccc2)cc1-c1ccc([N+](=O)[O-])cc1`, the MIC in the experiment on Saccharomyces cerevisiae, in the experiment on Escherichia coli and against Bacillus subtilis was > 100 µg/mL throughout.

In the case of `O=CC1=CC=C(c2ccccc2)CC1c1ccc([N+](=O)[O-])cc1` (stereo not drawn), the MIC in the experiment with Saccharomyces cerevisiae, against Escherichia coli and in the experiment with Bacillus subtilis was > 100 µg/mL each time.

For the compound `O=CC1=CC=C(c2cccs2)CC1c1ccccc1` (stereo not drawn), the minimum inhibitory concentration (MIC) against Saccharomyces cerevisiae, in the experiment with Escherichia coli and in the experiment on Bacillus subtilis was > 100 µg/mL throughout.

For `CC1=CC=C(C=O)C(C)(c2ccc(-c3ccccc3)cc2)C1` (stereo not drawn), the minimal inhibitory concentration (MIC) against Saccharomyces cerevisiae, against Escherichia coli and against Bacillus subtilis was > 100 µg/mL in each case.

In the case of `CC1=C(/C=C/C(C)=C/C=C/C2=CC=C(C=O)C(c3ccc([N+](=O)[O-])cc3)C2)C(C)(C)CCC1` (stereo not drawn), the MIC with Saccharomyces cerevisiae, against Escherichia coli and in the experiment with Bacillus subtilis was > 100 µg/mL throughout.

Consider `CC1C(c2cccs2)=CC=C(C=O)C1c1ccc(N(C)C)cc1` (stereo not drawn), for which the minimal inhibitory concentration (MIC) against Saccharomyces cerevisiae, with Escherichia coli and against Bacillus subtilis was > 100 µg/mL throughout.

On to `CN(C)c1ccc(-c2cc(-c3ccc4ccccc4c3)ccc2C=O)cc1`, for which the MIC in the experiment on Saccharomyces cerevisiae, in the experiment on Escherichia coli and against Bacillus subtilis was > 100 µg/mL each time.

On to `CC1(c2cccs2)CC(c2cccs2)=CC=C1C=O` (stereo not drawn), for which the minimum inhibitory concentration (MIC) with Saccharomyces cerevisiae, with Escherichia coli and against Bacillus subtilis was > 100 µg/mL throughout.

For the compound `Cc1ccc(C2=CC=C(C=O)C(c3ccc([N+](=O)[O-])cc3)C2)o1` (stereo not drawn), the minimum inhibitory concentration (MIC) against Saccharomyces cerevisiae, against Escherichia coli and with Bacillus subtilis was > 100 µg/mL throughout.

As for `CC1=CC=C(C=O)C(c2ccccc2)C1` (stereo not drawn), the minimal inhibitory concentration (MIC) with Saccharomyces cerevisiae, in the experiment with Escherichia coli and in the experiment on Bacillus subtilis was > 100 µg/mL each time.

Take `CC1(c2ccc3ccccc3c2)CC(c2ccc3ccccc3c2)=CC=C1C=O` (stereo not drawn): the MIC against Saccharomyces cerevisiae, in the experiment on Escherichia coli and in the experiment with Bacillus subtilis was > 100 µg/mL in each case.

Regarding `CC(C)=CCCC1=CC=C(C=O)C(C)(CCC=C(C)C)C1` (stereo not drawn), the MIC in the experiment on Saccharomyces cerevisiae, in the experiment on Escherichia coli and in the experiment on Bacillus subtilis was > 100 µg/mL throughout.

With `CC1=C(/C=C/C(C)=C/C=C/C2=CC=C(C=O)C(c3ccccc3)C2)C(C)(C)CCC1` (stereo not drawn), the minimum inhibitory concentration (MIC) with Saccharomyces cerevisiae, against Escherichia coli and in the experiment with Bacillus subtilis was > 100 µg/mL each time.

In the case of `CC1=CC=C(C=O)C(C)(C)C1`, the minimum inhibitory concentration (MIC) in the experiment with Saccharomyces cerevisiae, in the experiment with Escherichia coli and in the experiment with Bacillus subtilis was > 100 µg/mL each time.

Take `CC(C)=CCCC1=CC=C(C=O)C(C)C1` (stereo not drawn): the MIC against Saccharomyces cerevisiae, against Escherichia coli and against Bacillus subtilis was > 100 µg/mL throughout.

Take `CN(C)c1ccc(-c2cc(-c3ccc(-c4ccccc4)cc3)ccc2C=O)cc1`: the MIC against Saccharomyces cerevisiae, against Escherichia coli and with Bacillus subtilis was > 100 µg/mL each time.

Take `CC(C)=CCC/C(C)=C/CCC1=CC=C(C=O)C(c2ccccc2)C1` (stereo not drawn): the minimal inhibitory concentration (MIC) against Saccharomyces cerevisiae, with Escherichia coli and in the experiment on Bacillus subtilis was > 100 µg/mL throughout.

For `CN(C)c1ccc(-c2cc(-c3ccccc3)ccc2C=O)cc1`, the MIC against Saccharomyces cerevisiae, against Escherichia coli and with Bacillus subtilis was > 100 µg/mL each time.

As to `CC1(c2ccc(-c3ccccc3)cc2)CC(c2ccc(-c3ccccc3)cc2)=CC=C1C=O` (stereo not drawn), the minimum inhibitory concentration (MIC) against Saccharomyces cerevisiae, against Escherichia coli and against Bacillus subtilis was > 100 µg/mL each time.

`O=CC1=CC=C(c2cccs2)CC1c1ccc([N+](=O)[O-])cc1` (stereo not drawn): the MIC in the experiment on Saccharomyces cerevisiae, with Escherichia coli and in the experiment with Bacillus subtilis was > 100 µg/mL each time.

In the case of `Cc1ccc(C2=CC=C(C=O)C(C)(c3ccc(C)o3)C2)o1` (stereo not drawn), the MIC against Saccharomyces cerevisiae, against Escherichia coli and against Bacillus subtilis was > 100 µg/mL each time.

`Cc1ccc(C=O)c(-c2ccc(N(C)C)cc2)c1`: the MIC is > 100 µg/mL against Saccharomyces cerevisiae, > 100 µg/mL against Escherichia coli and 10 µg/mL (≈ 41.8 µM) against Bacillus subtilis.

In the case of `CC1=C(/C=C/C2=CC=C(C=O)C(c3ccc(N(C)C)cc3)C2)C(C)(C)CCC1` (stereo not drawn), the MIC against Saccharomyces cerevisiae, in the experiment with Escherichia coli and in the experiment on Bacillus subtilis was > 100 µg/mL throughout.

Turning to `O=CC1=CC=C(c2ccc3ccccc3c2)CC1c1ccccc1` (stereo not drawn), the MIC against Saccharomyces cerevisiae, in the experiment on Escherichia coli and in the experiment with Bacillus subtilis was > 100 µg/mL each time.

Take `O=CC1=CC=C(c2ccccc2)CC1c1ccccc1` (stereo not drawn): the MIC in the experiment on Saccharomyces cerevisiae, against Escherichia coli and against Bacillus subtilis was > 100 µg/mL in each case.

For the compound `CC1(c2cccs2)CC(c2ccc(-c3ccccc3)cc2)=CC=C1C=O` (stereo not drawn), the MIC in the experiment on Saccharomyces cerevisiae was > 100 µg/mL; in the experiment with Escherichia coli, > 100 µg/mL; in the experiment on Bacillus subtilis, 10 µg/mL (≈ 28.1 µM).

With `CC(C)=CCCc1ccc(C=O)c(-c2ccc([N+](=O)[O-])cc2)c1`, the minimal inhibitory concentration (MIC) in the experiment on Saccharomyces cerevisiae, with Escherichia coli and against Bacillus subtilis was > 100 µg/mL each time.

`CC1CC(c2cccs2)=CC=C1C=O` (stereo not drawn): the MIC with Saccharomyces cerevisiae, with Escherichia coli and in the experiment with Bacillus subtilis was > 100 µg/mL each time.

As to `CC(C)=CC[C@H]1C(C)=CC=C(C=O)[C@H]1c1ccc([N+](=O)[O-])cc1`, the minimum inhibitory concentration (MIC) against Saccharomyces cerevisiae was > 100 µg/mL; with Escherichia coli, > 100 µg/mL; in the experiment with Bacillus subtilis, 10 µg/mL (≈ 32.1 µM).

Consider `CC(C)=CCC/C(C)=C/C[C@H]1C(C)=CC=C(C=O)[C@H]1c1ccccc1`, for which the MIC in the experiment with Saccharomyces cerevisiae, against Escherichia coli and in the experiment on Bacillus subtilis was > 100 µg/mL each time.

Take `CCCCC[C@H]1C(C)=CC=C(C=O)[C@H]1c1ccccc1`: the MIC in the experiment with Saccharomyces cerevisiae, against Escherichia coli and against Bacillus subtilis was > 100 µg/mL each time.

On to `CC1=C(/C=C/C(C)=C/C=C/C2=CC=C(C=O)C(C)(/C=C/C=C(C)/C=C/C3=C(C)CCCC3(C)C)C2)C(C)(C)CCC1` (stereo not drawn), for which the MIC with Saccharomyces cerevisiae, in the experiment on Escherichia coli and against Bacillus subtilis was > 100 µg/mL throughout.

Take `CC1CC(c2ccc3ccccc3c2)=CC=C1C=O` (stereo not drawn): the MIC against Saccharomyces cerevisiae, in the experiment with Escherichia coli and with Bacillus subtilis was > 100 µg/mL each time.

In the case of `O=CC1=CC=C(c2ccc(-c3ccccc3)cc2)CC1`, the MIC with Saccharomyces cerevisiae, in the experiment with Escherichia coli and against Bacillus subtilis was > 100 µg/mL each time.

As to `CC1(c2ccc(Cl)s2)CC(c2ccc(Cl)s2)=CC=C1C=O` (stereo not drawn), the minimal inhibitory concentration (MIC) in the experiment on Saccharomyces cerevisiae, in the experiment with Escherichia coli and with Bacillus subtilis was > 100 µg/mL each time.

As to `CC(C)=CCC/C(C)=C/CCC1=CC=C(C=O)C(C)(CC/C=C(\C)CCC=C(C)C)C1` (stereo not drawn), the minimal inhibitory concentration (MIC) against Saccharomyces cerevisiae, against Escherichia coli and with Bacillus subtilis was > 100 µg/mL throughout.

Regarding `CC1(c2ccccc2)CC(c2ccccc2)=CC=C1C=O` (stereo not drawn), the MIC in the experiment on Saccharomyces cerevisiae, in the experiment on Escherichia coli and against Bacillus subtilis was > 100 µg/mL throughout.

Turning to `CC1=C(/C=C/C2=CC=C(C=O)C(c3ccccc3)C2)C(C)(C)CCC1` (stereo not drawn), the MIC with Saccharomyces cerevisiae, against Escherichia coli and with Bacillus subtilis was > 100 µg/mL each time.

With `CC(C)=CCCc1ccc(C=O)c(-c2ccccc2)c1`, the MIC in the experiment on Saccharomyces cerevisiae, with Escherichia coli and against Bacillus subtilis was > 100 µg/mL throughout.

`CC1=CC=C(C=O)C(c2ccc(N(C)C)cc2)C1` (stereo not drawn): the minimal inhibitory concentration (MIC) in the experiment on Saccharomyces cerevisiae, in the experiment with Escherichia coli and against Bacillus subtilis was > 100 µg/mL in each case.

One may read the MIC as the lowest concentration found to suppress growth.
